From patent US20240299431A1, “NEW SYNTHETIC AGONISTS OF TLR4 RECEPTOR” (UNIVERSITÀ DEGLI STUDI DI MILANO - BICOCCA, priority 2021, published 2024)

Assays:
[1] = target: T1, human TLR4 (Homo sapiens, UniProt O00206+Q9Y6Y9); assay: HEK-Blue hTLR4 SEAP reporter assay (agonist activity, QUANTI-Blue); assay type: cell-based; conditions: HEK-Blue hTLR4 cells, 0.1-25 μM, 18 hours, normalized to LPS
T1 construct: host or cells: HEK-Blue hTLR4 (HEK293-derived)
Text: HEK-BIue™ hTLR4 and HEK-BIue™ hTLR2 (InvivoGen) are cell lines designed to study the activation of human TLR4 and TLR2 receptors, respectively, by monitoring the activation of transcription factors NF-kB and AP-1. Stimulation with TLR4 ligands (in the case of HEK-Blue hTLR4) or with TLR2 ligands (in the case of HEK-Blue hTLR2) activates NF-kB and AP-1, inducing the production and release of the SEAP reporter gene (phosphatase secreted embryonic alkaline) in the extracellular environment. The analysis of the reporter gene was performed using the QUANTI-Blue™ colorimetric assay (InvivoGen), a substrate of SEAP, which generates a chromogenic product whose absorbance is read at 630 nm. The agonist activity of the molecules was tested by treating HEK-Blue hTLR4 cells for 18 hours with increasing concentrations of the compounds (0.1-1-10-25 μM) and using MPLA (0.1-1-10 μM) and S-LPS (100 ng/mL) as a reference and positive receptor activation control, respectively. […] The molecules were subsequently tested on the HEK-Blue hTLR2 cell line with the aim of excluding the activation of this receptor. […]
The ability of FP molecules to activate human TLR4 was assessed using HEK-Blue hTLR4 cells. […]

[2] = target: T1, human TLR4; assay: Inhibition of LPS-induced SEAP production in HEK-Blue hTLR4 cells (antagonism); assay type: cell-based
[3] = target: T1, human TLR4; conditions: HEK-Blue hTLR4 cells, Experiment 2 of WO2019/092572; cited from earlier work

T1 sequence (O00206 24-839): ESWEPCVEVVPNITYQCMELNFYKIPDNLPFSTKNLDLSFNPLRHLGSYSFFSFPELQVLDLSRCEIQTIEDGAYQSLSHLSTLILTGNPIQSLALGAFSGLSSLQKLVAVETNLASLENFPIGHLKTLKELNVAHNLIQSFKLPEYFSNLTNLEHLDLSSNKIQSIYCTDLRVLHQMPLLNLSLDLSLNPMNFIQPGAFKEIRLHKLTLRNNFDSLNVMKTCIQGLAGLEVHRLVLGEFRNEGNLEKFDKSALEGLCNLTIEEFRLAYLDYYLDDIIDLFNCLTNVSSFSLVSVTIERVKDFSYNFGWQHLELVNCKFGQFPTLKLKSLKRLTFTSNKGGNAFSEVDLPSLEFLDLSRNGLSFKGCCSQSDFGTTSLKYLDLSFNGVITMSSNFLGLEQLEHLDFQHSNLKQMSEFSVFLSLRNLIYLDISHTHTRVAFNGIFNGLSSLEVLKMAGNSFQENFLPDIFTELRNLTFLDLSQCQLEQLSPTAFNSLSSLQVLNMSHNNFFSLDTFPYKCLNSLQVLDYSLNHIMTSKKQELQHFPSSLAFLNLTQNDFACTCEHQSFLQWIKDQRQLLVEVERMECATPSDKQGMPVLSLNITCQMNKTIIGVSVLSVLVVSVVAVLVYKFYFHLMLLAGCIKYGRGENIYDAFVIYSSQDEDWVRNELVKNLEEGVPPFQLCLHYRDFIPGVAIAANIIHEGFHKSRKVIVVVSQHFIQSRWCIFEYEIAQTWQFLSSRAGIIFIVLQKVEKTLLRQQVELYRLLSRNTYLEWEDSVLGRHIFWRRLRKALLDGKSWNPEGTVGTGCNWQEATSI
T1 sequence (Q9Y6Y9 17-160 limits assumed): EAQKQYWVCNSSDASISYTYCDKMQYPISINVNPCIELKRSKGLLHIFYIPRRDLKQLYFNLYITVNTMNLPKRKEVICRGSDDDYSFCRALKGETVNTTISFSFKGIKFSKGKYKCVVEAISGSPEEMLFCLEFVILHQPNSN

CCCCCCCCCCCCCC(=O)NC1[C@H](OP(=O)(O)O)OC(COP(=O)(O)O)[C@@H](OC(=O)CCCCCCCCCCCCC)[C@@H]1OC(=O)CCCCCCCCCCCCC (stereo partly drawn) [FP111]
activation of TLR4 (SEAP release, NF-kB and AP-1) [1]: inactive
inhibition of LPS-induced SEAP production (TLR4 antagonistic activity) [2]: did not inhibit LPS-induced SEAP production
TLR4 agonist activity [3]: completely inactive
